This note sets out measurements from patent publication US9125861B2, “PAR2 agonists for use in the treatment or prevention of influenza virus type A infections” (Institut National de la Sante et de la Recherche Medicale …, priority 2009, dated 2015).

Ends that are not written are not given here.

The test system of assay [1] is IAV A/PR/8/34. Set-up: species or system C57BL/6 mice. The conditions noted are these: mouse, in vivo.
Assay [2] deals with IAV A/PR/8/34. On the set-up: species or system C57BL/6 mice. The following applies: mouse, in vivo. This is another data set of the same source.
Assay [3] relates to IFN-γ. On the set-up: species or system C57BL/6 mice. The following applies: mouse, in vivo.
For the next assay, the target named is T1, PAR2 (Homo sapiens, UniProt P55085).
T1 construct: endogenous in cells; host or cells: A549 (human alveolar type II epithelial cell line, ATCC)
T1 sequence (P55085 26-397): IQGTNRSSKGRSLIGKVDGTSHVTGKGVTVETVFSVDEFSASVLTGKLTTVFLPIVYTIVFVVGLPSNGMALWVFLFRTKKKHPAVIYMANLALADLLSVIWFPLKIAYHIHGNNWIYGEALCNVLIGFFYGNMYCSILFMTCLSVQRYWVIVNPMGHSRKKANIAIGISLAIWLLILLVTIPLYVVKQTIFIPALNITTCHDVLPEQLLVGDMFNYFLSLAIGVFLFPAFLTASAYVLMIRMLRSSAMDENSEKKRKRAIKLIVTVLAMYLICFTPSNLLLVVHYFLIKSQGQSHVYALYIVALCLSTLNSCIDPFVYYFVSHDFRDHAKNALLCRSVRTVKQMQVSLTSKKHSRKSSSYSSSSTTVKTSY
The assay can be described thus: Flow cytometry of PAR2 expression in A549 cells after PAR2 stimulation. The format is cell-based. The following applies: 250 μM peptide, 24 hours post-stimulation, permeabilized cells. On the procedure:
A549 cells were infected or not at a MOI of 0.001 for 24 hours and flow cytometry experiments were done on permeabilized cells, as previously described (Riteau B. et al. 2001; Riteau B. et al. 2001), using the SAM11 anti-PAR2 antibody (Santa-cruz biotechnology, Inc, USA). PAR2 stimulation of A549 cells was performed using 250 μM of PAR2 specific activating peptide SLIGRL-NH2 and flow cytometry experiment was performed 24 hours post-stimulation.
A general note: A flow cytometer gives signals particle by particle.

Another assay relates to IAV A/PR/8/34 (H1N1). Type of assay: cell-based, influenza virus type A.
Assay [4] relates to RANTES. Type of assay: cell-based, human.
Assay [5] has as its system IFN-γ. The format is cell-based, human.
For assay [6], the system named is IAV A/PR/8/34. On the set-up: species or system C57BL/6 mice. The following applies: mouse, in vivo. The source holds these as a separate data set.
A further assay deals with neutrophils. On the set-up: species or system C57BL/6 mice. The following applies: mouse, in vivo.
Assay [7] deals with RANTES. On the set-up: species or system C57BL/6 mice. The conditions noted are these: mouse, in vivo.
The subject of assay [8] is IAV A/PR/8/34. The assay can be described thus: Survival and weight loss of IAV-infected IFN-γ-deficient mice treated with peptide. The conditions noted are these: 50 000 pfu/mice.
Excerpt: Six-weeks-old IFN-γ-deficient mice (background C57BL/6, n=36) obtained from the INRA “Experimental Infectiology Platform” of Tours (France) were anaesthetized once and infected intranasally with 50 000 pfu of A/PR/8/34 in the presence or absence of SLIGRL-NH2. C57BL/6J/WT mice (n=20) were used as control. Infected mice were then monitored daily for survival.

For the substance LRGILS-NH2 [reference compound], in the assay with IAV A/PR/8/34 [1], the survival rate result was “had no effect”. In addition, the “overall appearance of lungs (photographic pictures)” value in the assay on IAV A/PR/8/34 [2] was “severely injured”. In addition, in the assay with IFN-γ [3], the “IFN-γ release in BAL after IAV infection” value is on record as “No significant increase”.

Take SLIGRL-NH2: the “effect on PAR2 synthesis” value with PAR2 was “had no effect”. Also, in the assay on IAV A/PR/8/34 (H1N1), the “inhibition of IAV replication in the presence of anti-IFNγ neutralizing antibody” value is given as “could be reversed” and the virus production entry was “produced less virus”. Further, in the assay on RANTES [4], the RANTES level entry is given as “at the limit of detection” and the RANTES production entry is “significantly inhibited”. Moreover, in the assay with IFN-γ [5], the IFN-γ level entry is listed as “at the limit of detection”, the IFN-γ release result is “induced IFN-γ release” and the “time of peak IFN-γ release” value stood at 8 hours post-infection. In the assay with IAV A/PR/8/34 [1], the “protection stable, inhibiting mortality until” value was at least 12 days and the survival rate result was “protected mice from death, in a dose-dependent manner”. In the assay on IAV A/PR/8/34 [6], the “decreased infectious virus load in lungs at lower doses of IAV infection” value was “also observed” and the “infectious virus load in lungs” value is “significantly decreased”. Further, the “histopathologic examination of the lungs” value in the assay with IAV A/PR/8/34 [2] is recorded as “lack evidence of pathology”. In addition, in the assay on neutrophils, the “influx of neutrophils in BAL” value is given as “significantly decreased” and the “number of neutrophils in BAL at 48-hours compared to level at 24-hours” value is on record as “significantly increased”. In addition, in the assay on RANTES [7], the “IAV-induced increase of RANTES in BAL” value is listed as “significantly inhibited” and the “release of RANTES in BAL” value is “three-fold increase”. In the assay with IFN-γ [3], the “IFN-γ release in BAL after IAV infection” value is recorded as “significant increase” and the “release of IFN-γ in BAL” value is “no effect”. Moreover, in the assay on IAV A/PR/8/34 [8], the “kinetic of weight loss after IAV infection” value is on record as “did not modify” and the protection from death result is reported as “did not protect mice from death”.
